Source: patent US7049289B1, “Labelled glutamine and lysine analogues” (Amersham PLC, priority 1998, dated 2006)
Where two headings read alike, the source gives them in different places. Blank lines part the entries; values can stand above or below the compound they belong to. Where a SMILES comes first, the peptide text is derived from it. The star is where a group is joined. X1 = CC(=NO)C(C)(C)NCC(C)(CNC(C)(C)C(C)=NO)CN*; Cbz = O=C(OCc1ccccc1)*

What was measured:
[1] = In vitro plasma stability (human plasma)
Protocol: (§1) To a portion of compound (50 μl, 10 MBq/ml) was added an equal volume of plasma (rat or human) or saline. The mixtures were incubated at 37° C. and the stability measured by HPLC (system C) at 0, 30 and 120 minutes. The saline dilution acted as a control.

[2] = target: T1, fibrin (in vitro human plasma clot) (Homo sapiens, UniProt P02671+P02675+P02679); test: Incorporation into human plasma clots in vitro; type: biochemical; settings: for % specific uptake: % retained (with thrombin) - % retained (no thrombin); for % retained (no thrombin): control without thrombin and calcium chloride (non-specific binding); for % retained (with thrombin): human plasma clot, 60 minutes, ca. 20° C.
T1 construct: about 400 μl of human plasma containing the radiolabelled substrate; from tissue; host or cells: human plasma, clotted in vitro with added thrombin and calcium chloride
T1 sequence (P02671 20-644 isoform P02671-2 limits assumed): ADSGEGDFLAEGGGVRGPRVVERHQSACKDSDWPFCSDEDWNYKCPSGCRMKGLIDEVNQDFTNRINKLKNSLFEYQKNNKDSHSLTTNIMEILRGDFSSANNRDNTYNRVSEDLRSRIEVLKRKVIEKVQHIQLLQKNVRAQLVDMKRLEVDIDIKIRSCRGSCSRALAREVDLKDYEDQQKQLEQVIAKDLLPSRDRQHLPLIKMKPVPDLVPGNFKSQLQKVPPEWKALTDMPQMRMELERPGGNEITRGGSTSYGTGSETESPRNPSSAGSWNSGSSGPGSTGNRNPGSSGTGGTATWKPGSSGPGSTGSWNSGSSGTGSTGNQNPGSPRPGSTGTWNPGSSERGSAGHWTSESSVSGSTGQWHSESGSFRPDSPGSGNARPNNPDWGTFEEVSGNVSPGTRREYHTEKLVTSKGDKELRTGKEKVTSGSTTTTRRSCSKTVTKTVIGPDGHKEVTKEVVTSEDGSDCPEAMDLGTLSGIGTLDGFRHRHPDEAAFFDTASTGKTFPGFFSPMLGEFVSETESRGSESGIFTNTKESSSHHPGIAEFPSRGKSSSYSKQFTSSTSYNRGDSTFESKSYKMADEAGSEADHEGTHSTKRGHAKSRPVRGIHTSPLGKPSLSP
T1 sequence (P02675 45-491 limits assumed): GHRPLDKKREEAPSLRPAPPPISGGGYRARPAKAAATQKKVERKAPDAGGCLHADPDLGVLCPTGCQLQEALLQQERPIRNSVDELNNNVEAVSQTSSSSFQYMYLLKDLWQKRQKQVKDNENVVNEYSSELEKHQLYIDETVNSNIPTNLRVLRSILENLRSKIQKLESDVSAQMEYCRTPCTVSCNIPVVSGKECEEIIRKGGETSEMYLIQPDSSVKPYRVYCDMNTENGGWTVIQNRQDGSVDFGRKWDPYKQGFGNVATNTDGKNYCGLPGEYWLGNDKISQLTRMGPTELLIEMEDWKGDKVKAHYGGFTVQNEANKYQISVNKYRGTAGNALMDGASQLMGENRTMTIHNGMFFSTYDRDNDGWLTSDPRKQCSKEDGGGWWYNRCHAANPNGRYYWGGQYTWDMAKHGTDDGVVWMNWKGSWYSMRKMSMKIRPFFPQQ
T1 sequence (P02679 27-437 isoform P02679-2 limits assumed): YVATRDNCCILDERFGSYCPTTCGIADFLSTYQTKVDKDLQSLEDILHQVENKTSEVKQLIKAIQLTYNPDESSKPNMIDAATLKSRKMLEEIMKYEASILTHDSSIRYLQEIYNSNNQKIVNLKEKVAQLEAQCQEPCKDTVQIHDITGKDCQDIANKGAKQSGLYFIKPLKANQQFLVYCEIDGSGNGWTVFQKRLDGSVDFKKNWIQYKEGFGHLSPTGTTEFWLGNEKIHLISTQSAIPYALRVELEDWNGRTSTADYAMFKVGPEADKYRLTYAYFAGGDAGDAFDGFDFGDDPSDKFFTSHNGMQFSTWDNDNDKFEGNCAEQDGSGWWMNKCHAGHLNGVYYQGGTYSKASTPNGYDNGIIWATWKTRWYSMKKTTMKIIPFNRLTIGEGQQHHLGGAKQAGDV
Method in brief: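 Human plasma containing radiolabelled substrate (typically 10 kBq/ml) clotted with thrombin in Tris-saline pH 7.5 with 4 mM CaCl2, 60 min at ca. 20 °C, then stopped with cold EDTA. Clots collected on nitrocellulose filters and washed; incorporation is filter-retained radioactivity fraction minus non-specific binding from thrombin/calcium-free controls.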

[3] = Incorporation into clots induced in a rat model (rat inferior vena cava model); type: in vivo, rat (Male Wistar); settings: for % id/g (clot) / Rel. Conc. (cpm/g of clot by dose/g animal): sacrificed after 60 min
Method in brief: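 Male Wistar rats (250–350 g) under 15% urethane anaesthesia, with the vena cava isolated by laparotomy. Compounds given 5 min (fresh clot) or 60 min (aged clot) after clot induction; clot, blood, lung and heart removed 60 min later, weighed and counted. Uptake expressed as cpm/g clot per dose/g animal and as clot-to-background tissue ratio.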

[4] = In vitro plasma stability (rat plasma)
Protocol: as §1

[5] = parameters: species or system rat (Male Wistar); settings: rat, in vivo; for % ID Blood / % ID GI Tract / % ID Heart / % ID Kidney / % ID Liver / % ID Lung / % ID Muscle / % ID Urine: iv
Protocol: The resolution of a clot image is dependant on the combination of rate of incorporation of the radiopharmaceutical and its blood/tissues clearance rate. For this reason the biodistribution of several compounds has been determined in rats. Male Wistar (100–150 g) rats were injected i.v. with 0.1–0.2 ml of radiolabelled tracer solution (8 MBq/ml) and dissected at different times post-injection. The % ID in each of the selected tissues was measured. Some animals were kept in metabolism cages to be able to determine the % ID excreted in urine and faeces. The dissection times used for the agent were 15, 30, 60, 240 min. Data are shown as mean of % ID (n=3).

[6] = rat, plasma, 2 h
Protocol: as §1

[7] = human, plasma, 2 h
Protocol: as §1

[8] = Imaging of clots induced in a rat model (jugular vein); type: in vivo, rat (male Wistar); settings: planar gamma camera images 15–180 min p.i.
Protocol: Clots were induced in male Wistar rats (250–350 g) as described in Example 17, with the exception that for these experiments the platinum wire was located in the jugular vein. The compounds were injected 60 min […] and planar images acquired between 15–180 min p.i. A Park medical Isocam I gamma camera was used for these experiments, 300K or 150K counts were of the thorax were collected using a LEUHR or a LEPH collimator. Clots were visualised from 15 min p.i.

[9] = ^125I radiolabelled; cited from earlier work
[10] = Aged Clots: injected 60 min post-induction
[11] = Fresh Clots: injected 5 min post-induction

remaining at 2 h [1]: > 90% | % specific uptake [2]: 40.6% | % retained (no thrombin) [2]: 0.7% | % retained (with thrombin) [2]: 41.3% | remaining at 2 h [4]: > 90%
Compound: CC(=NO)C(C)(C)NCC(C)(CNC(=O)CNC(=O)[C@H](CCCCN)NC(=O)[C@H](CC(C)C)NC(=O)[C@H](CC(C)C)NC(=O)[C@@H](NC(=O)[C@H](Cc1ccc(O)cc1)NC(=O)[C@@H]1CCCN1C(=O)[C@H](CO)NC(=O)[C@@H](NC(=O)[C@H](CCC(N)=O)NC(=O)[C@H](CCC(=O)O)NC(=O)[C@H](CCC(N)=O)NC(=O)[C@H](CC(N)=O)NC(=O)OCc1ccccc1)C(C)C)[C@@H](C)O)CNC(C)(C)C(C)=NO (some centres unmarked) [^99mTc-Cmpd 7, metal not drawn] (Cbz-NQEQVSPYTLLKG-X1; C-terminus assumed)
Clot/blood ([3]; Aged Clots): 9 | Clot/heart ([3]; Aged Clots): 15 | Clot/liver ([3]; Aged Clots): 3 | Clot/lung ([3]; Aged Clots): 7 | % id/g (clot) [3, 10]: 2.1 ± 0.3 % id/g | Rel. Conc. (cpm/g of clot by dose/g animal) [3, 10]: 6.5 ± 1.3 | Clot/blood ([3]; Fresh Clots): 15 | Clot/heart ([3]; Fresh Clots): 21 | Clot/liver ([3]; Fresh Clots): 6 | Clot/lung ([3]; Fresh Clots): 11 | % id/g (clot) [3, 11]: 4.8 ± 1.3 % id/g | Rel. Conc. (cpm/g of clot by dose/g animal) [3, 11]: 14.5 ± 4.4

% specific uptake [2]: 39.0% | % retained (no thrombin) [2]: 0.3% | % retained (with thrombin) [2]: 39.3%
Compound: Ac-NQEQVSPYTLLKG-Pn44 (also: 99mTc complex) [^99mTc-Cmpd 3]
t1/2 (blood clearance, biological half life) [5]: 2 h | % ID Blood ([5]; 0.25 h): 5.3 % ID | % ID GI Tract ([5]; 0.25 h): 13.5 % ID | % ID Heart ([5]; 0.25 h): 0.2 % ID | % ID Kidney ([5]; 0.25 h): 7.6 % ID | % ID Liver ([5]; 0.25 h): 6.2 % ID | % ID Lung ([5]; 0.25 h): 0.7 % ID | % ID Muscle ([5]; 0.25 h): 14.7 % ID | % ID Urine ([5]; 0.25 h): 14.9 % ID | % ID Blood ([5]; 0.5 h): 1.8 % ID | % ID GI Tract ([5]; 0.5 h): 15.1 % ID | % ID Heart ([5]; 0.5 h): 0.1 % ID | % ID Kidney ([5]; 0.5 h): 4.9 % ID | % ID Liver ([5]; 0.5 h): 4.1 % ID | % ID Lung ([5]; 0.5 h): 0.4 % ID | % ID Muscle ([5]; 0.5 h): 10.4 % ID | % ID Urine ([5]; 0.5 h): 34.3 % ID | % ID Blood ([5]; 1 h): 1.6 % ID | % ID GI Tract ([5]; 1 h): 18.0 % ID | % ID Heart ([5]; 1 h): 0.1 % ID | % ID Kidney ([5]; 1 h): 4.6 % ID | % ID Liver ([5]; 1 h): 4.0 % ID | % ID Lung ([5]; 1 h): 0.3 % ID | % ID Muscle ([5]; 1 h): 5.1 % ID | % ID Urine ([5]; 1 h): 37.0 % ID | % ID Blood ([5]; 4 h): 0.6 % ID | % ID GI Tract ([5]; 4 h): 20.7 % ID | % ID Heart ([5]; 4 h): 0.04 % ID | % ID Kidney ([5]; 4 h): 3.4 % ID | % ID Liver ([5]; 4 h): 3.0 % ID | % ID Lung ([5]; 4 h): 0.3 % ID | % ID Muscle ([5]; 4 h): 2.9 % ID | % ID Urine ([5]; 4 h): 42.0 % ID | % intact at 120 mins [6]: >90% | Clot/blood ([3]; Aged Clots): 8 | Clot/heart ([3]; Aged Clots): 23 | Clot/liver ([3]; Aged Clots): 5 | Clot/lung ([3]; Aged Clots): 11 | % id/g (clot) [3, 10]: 2.1 ± 0.8 % id/g | Rel. Conc. (cpm/g of clot by dose/g animal) [3, 10]: 6.2 ± 2.2 | Clot/blood ([3]; Fresh Clots): 10 | Clot/heart ([3]; Fresh Clots): 17 | Clot/liver ([3]; Fresh Clots): 6 | Clot/lung ([3]; Fresh Clots): 8 | % id/g (clot) [3, 11]: 1.4 ± 0.4 % id/g | Rel. Conc. (cpm/g of clot by dose/g animal) [3, 11]: 5.1 ± 1.2 | % intact at 120 mins [7]: >90%

% specific uptake [2]: 35.3% | % retained (no thrombin) [2]: 0.2% | % retained (with thrombin) [2]: 35.5%
Compound: Ac-NQEQVSPYTLLKG-Pn216 (also: 99mTc complex) [^99mTc-Cmpd 5]
% intact at 120 mins [6]: >90% | suitability for imaging clots (in words) [8]: suitable for imaging clots | Clot/blood ([3]; Aged Clots): 13 | Clot/heart ([3]; Aged Clots): 33 | Clot/liver ([3]; Aged Clots): 24 | Clot/lung ([3]; Aged Clots): 31 | % id/g (clot) [3, 10]: 3.6 ± 1.7 % id/g | Rel. Conc. (cpm/g of clot by dose/g animal) [3, 10]: 11 ± 5.1 | Clot/blood ([3]; Fresh Clots): 21 | Clot/heart ([3]; Fresh Clots): 51 | Clot/liver ([3]; Fresh Clots): 43 | Clot/lung ([3]; Fresh Clots): 23 | % id/g (clot) [3, 11]: 6.0 ± 2.1 % id/g | Rel. Conc. (cpm/g of clot by dose/g animal) [3, 11]: 16 ± 5.8 | % intact at 120 mins [7]: >90%

Compound: NQEQVSPYTLTLLK [synthetic analogue of the alpha-2 antiplasmin N-terminal peptide, WO 89/00051]
uptake in thrombin clots in vitro (in words) [9]: taken up in thrombin clots in vitro
